Results reported in patent publication US20050222108A1, “Solvent-based sterilisation of pharmaceuticals” (priority 2002, published 2005).
Like-named read-outs stand apart in the source and are kept apart here.

How the values were obtained:
[1] = Solubility by w/w % assay of saturated solutions in various solvents; format: physicochemical; conditions: saturated solution, 21-23° C.
Description: The solubility of fluticasone propionate was measured by w/w % assay of saturated solutions in a variety of solvents at 21-23° C.

[2] = Stability to distillation at atmospheric pressure (HPLC area % profile); format: physicochemical; conditions: Example 5
Description: In this example, a development of example 4, the distillation was performed at atmospheric pressure and the first distillation was halted when the pot temperature reached 99° C. […] A further 25 volumes of water were added and the distillation continued until 25 volumes of distillate had been removed.

[3] = format: physicochemical; conditions: for Area %: 100° C. under nitrogen, in water
Description: A sample from the above example was heated to 100° C. under nitrogen for 30 hours to examine the stability of the drug under extended distillation times required on scale-up. No new impurities were evident in the area % chromatogram and the assay of the fluticasone propionate appears unaffected by extended periods at 100° C. in water.

## CCC(=O)O[C@]1(C(=O)SCF)[C@H](C)C[C@H]2[C@@H]3C[C@H](F)C4=CC(=O)C=C[C@]4(C)[C@@]3(F)[C@@H](O)C[C@@]21C [fluticasone propionate]
[1]; Acetone
  w/w % solubility of fluticasone propionate: 5.7 w/w %
[1]; Ethanol
  w/w % solubility of fluticasone propionate: 0.4 w/w %
[1]; Ethyl acetate
  w/w % solubility of fluticasone propionate: 0.2 w/w %
[1]; Isopropanol
  w/w % solubility of fluticasone propionate: 0.3 w/w %
[1]; tBME
  w/w % solubility of fluticasone propionate: 1.2 w/w %
[2]
  Stability to distillation at 100° C. (HPLC area % profile, starting solid to final aqueous slurry): stable
[3]
  Time chemically stable to distillation at 100° C.: at least 30 hours
[3]; 100° C. in water, up to 30 hours, no new impurities in area % chromatogram
  Assay of fluticasone propionate after extended periods at 100° C. in water: unaffected
[3]; Time 0 hr
  Area %: 99.2%
[3]; Time 6 hr
  Area %: 99.4%
[3]; Time 24 hr
  Area %: 99.5%
[3]; Time 30 hr
  Area %: 99.4%
